Measurements as given in ChEMBL document CHEMBL1201862, “PubChem BioAssay data set” (2004).
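Dose response: 5 concentrations. Exposure: 48 h. Format: 96-well plates. Endpoint: linear interpolation; highest concentration if not reached. Here, GI50 denotes the concentration required for 50% inhibition of growth.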 Active and inactive are the calls of the source. Cut-off read from the data, not from the text of the source: active = GI50 up to about 1.1 µM and inactive = higher.

Legend:
Experiment in all cases: growth of human tumour cells (NCI), 48 h
786-0 = test system: 786-0
OVCAR-4 = test system: OVCAR-4
RPMI-8226 = test system: RPMI-8226
Hs-578T = test system: Hs-578T
IGROV-1 = test system: IGROV-1
SW-620 = test system: SW-620
ACHN = test system: ACHN
COLO 205 = test system: COLO 205
SR = test system: SR
OVCAR-8 = test system: OVCAR-8
MDA-MB-231 = test system: MDA-MB-231
MDA-MB-435 = test system: MDA-MB-435
A549 = test system: A549
NCI-H522 = test system: NCI-H522
CAKI-1 = test system: CAKI-1
HOP-92 = test system: HOP-92
HL-60 = test system: HL-60
EKVX = test system: EKVX
SK-MEL-5 = test system: SK-MEL-5
HT-29 = test system: HT-29
MDA-N = test system: MDA-N
SK-OV-3 = test system: SK-OV-3
SF-295 = test system: SF-295
K562 = test system: K562
OVCAR-3 = test system: OVCAR-3
SK-MEL-2 = test system: SK-MEL-2
LOX IMVI = test system: LOX IMVI
A498 = test system: A498
UACC-257 = test system: UACC-257
SN12C = test system: SN12C
NCI-H460 = test system: NCI-H460
BT-549 = test system: BT-549
MOLT-4 = test system: MOLT-4
KM12 = test system: KM12
M14 = test system: M14
NCI-H226 = test system: NCI-H226
UO-31 = test system: UO-31
HCT-116 = test system: HCT-116
HCC 2998 = test system: HCC 2998
SNB-19 = test system: SNB-19
U-251 = test system: U-251
OVCAR-5 = test system: OVCAR-5
DU-145 = test system: DU-145
TK-10 = test system: TK-10
NCI/ADR-RES = test system: NCI/ADR-RES
UACC-62 = test system: UACC-62
RXF 393 = test system: RXF 393
SK-MEL-28 = test system: SK-MEL-28
PC-3 = test system: PC-3
NCI-H23 = test system: NCI-H23
CCRF-CEM = test system: CCRF-CEM
MCF7 = test system: MCF7
HCT-15 = test system: HCT-15
Malme-3M = test system: Malme-3M
SNB-75 = test system: SNB-75
HOP-62 = test system: HOP-62
T47D = test system: T47D
SF-268 = test system: SF-268

Q: Which results are given for `COc1c(O)cc2c3c(ccnc13)NC=C2`?
A: GI50 (786-0): 41.9 µM (inactive); GI50 (OVCAR-4): > 100 µM (inactive); GI50 (RPMI-8226): > 100 µM (inactive); GI50 (Hs-578T): > 100 µM (inactive); GI50 (IGROV-1): > 100 µM (inactive); GI50 (SW-620): 68.2 µM (inactive); GI50 (ACHN): 55.7 µM (inactive); GI50 (COLO 205): > 100 µM (inactive); GI50 (SR): 17.3 µM (inactive); GI50 (OVCAR-8): > 100 µM (inactive); GI50 (MDA-MB-231): 35.6 µM (inactive); GI50 (MDA-MB-435): > 100 µM (inactive); GI50 (A549): > 100 µM (inactive); GI50 (NCI-H522): 1.63 µM (inactive); GI50 (CAKI-1): > 100 µM (inactive); GI50 (HOP-92): > 100 µM (inactive); GI50 (HL-60): 11.4 µM (inactive); GI50 (EKVX): > 100 µM (inactive); GI50 (SK-MEL-5): > 100 µM (inactive); GI50 (HT-29): 16.9 µM (inactive); GI50 (MDA-N): > 100 µM (inactive); GI50 (SK-OV-3): 83.2 µM (inactive); GI50 (SF-295): > 100 µM (inactive); GI50 (K562): 96.6 µM (inactive); GI50 (OVCAR-3): 12.4 µM (inactive); GI50 (SK-MEL-2): 57.9 µM (inactive); GI50 (LOX IMVI): 61.1 µM (inactive); GI50 (A498): > 100 µM (inactive); GI50 (UACC-257): > 100 µM (inactive); GI50 (SN12C): > 100 µM (inactive); GI50 (NCI-H460): > 100 µM (inactive); GI50 (BT-549): > 100 µM (inactive); GI50 (MOLT-4): 3.25 µM (inactive); GI50 (KM12): > 100 µM (inactive); GI50 (M14): > 100 µM (inactive); GI50 (NCI-H226): > 100 µM (inactive); GI50 (UO-31): 36.8 µM (inactive); GI50 (HCT-116): 76.9 µM (inactive); GI50 (HCC 2998): > 100 µM (inactive); GI50 (SNB-19): > 100 µM (inactive); GI50 (U-251): 80.2 µM (inactive); GI50 (OVCAR-5): > 100 µM (inactive); GI50 (DU-145): > 100 µM (inactive); GI50 (TK-10): > 100 µM (inactive); GI50 (NCI/ADR-RES): > 100 µM (inactive); GI50 (UACC-62): > 100 µM (inactive); GI50 (RXF 393): 18.1 µM (inactive); GI50 (SK-MEL-28): > 100 µM (inactive); GI50 (PC-3): 24.3 µM (inactive); GI50 (NCI-H23): > 100 µM (inactive); GI50 (CCRF-CEM): 4.78 µM (inactive); GI50 (MCF7): 26.7 µM (inactive); GI50 (HCT-15): > 100 µM; GI50 (Malme-3M): 85.7 µM (inactive)

Q: How did the GI50 (OVCAR-4) turn out when `O=C(CCCn1cnc([N+](=O)[O-])n1)NCCn1ccnc1[N+](=O)[O-]` was run?
A: > 100 µM (inactive)

Q: What about the GI50 (RPMI-8226) of the same compound?
A: > 100 µM (inactive)

Q: And the GI50 (SNB-75)?
A: > 100 µM (inactive)

Q: What about the GI50 (Hs-578T) of the same compound?
A: > 100 µM (inactive)

Q: And the GI50 (IGROV-1)?
A: > 100 µM (inactive)

Q: And the GI50 (SW-620)?
A: > 100 µM (inactive)

Q: What about the GI50 (ACHN) of the same compound?
A: > 100 µM (inactive)

Q: And the GI50 (COLO 205)?
A: > 100 µM (inactive)

Q: And the GI50 (SR)?
A: > 100 µM (inactive)

Q: And the GI50 (A549)?
A: > 100 µM (inactive)

Q: And the GI50 (NCI-H522)?
A: > 100 µM (inactive)

Q: What about the GI50 (CAKI-1) of the same compound?
A: > 100 µM (inactive)

Q: What about the GI50 (HOP-92) of the same compound?
A: 61.7 µM (inactive)

Q: And the GI50 (HL-60)?
A: > 100 µM (inactive)

Q: And the GI50 (EKVX)?
A: > 100 µM (inactive)

Q: What about the GI50 (SK-MEL-5) of the same compound?
A: > 100 µM (inactive)

Q: And the GI50 (HT-29)?
A: > 100 µM (inactive)

Q: And the GI50 (MDA-N)?
A: > 100 µM (inactive)

Q: What about the GI50 (SK-OV-3) of the same compound?
A: > 100 µM (inactive)

Q: What about the GI50 (SF-295) of the same compound?
A: > 100 µM (inactive)

Q: And the GI50 (K562)?
A: > 100 µM (inactive)

Q: What about the GI50 (OVCAR-3) of the same compound?
A: > 100 µM (inactive)

Q: What about the GI50 (SK-MEL-2) of the same compound?
A: > 100 µM (inactive)

Q: What about the GI50 (LOX IMVI) of the same compound?
A: > 100 µM (inactive)

Q: And the GI50 (UACC-257)?
A: > 100 µM (inactive)

Q: What about the GI50 (HOP-62) of the same compound?
A: > 100 µM (inactive)

Q: And the GI50 (NCI-H460)?
A: > 100 µM (inactive)

Q: What about the GI50 (T47D) of the same compound?
A: > 100 µM (inactive)

Q: And the GI50 (BT-549)?
A: > 100 µM (inactive)

Q: What about the GI50 (MOLT-4) of the same compound?
A: > 100 µM (inactive)

Q: What about the GI50 (KM12) of the same compound?
A: > 100 µM (inactive)

Q: What about the GI50 (M14) of the same compound?
A: > 100 µM (inactive)

Q: And the GI50 (NCI-H226)?
A: > 100 µM (inactive)

Q: And the GI50 (UO-31)?
A: > 100 µM (inactive)

Q: What about the GI50 (U-251) of the same compound?
A: > 100 µM (inactive)

Q: What about the GI50 (OVCAR-5) of the same compound?
A: > 100 µM (inactive)

Q: And the GI50 (DU-145)?
A: > 100 µM (inactive)

Q: And the GI50 (TK-10)?
A: > 100 µM (inactive)

Q: What about the GI50 (UACC-62) of the same compound?
A: > 100 µM (inactive)

Q: And the GI50 (RXF 393)?
A: > 100 µM (inactive)

Q: And the GI50 (SK-MEL-28)?
A: > 100 µM (inactive)

Q: What about the GI50 (SF-268) of the same compound?
A: > 100 µM (inactive)

Q: And the GI50 (PC-3)?
A: > 100 µM (inactive)

Q: What about the GI50 (NCI-H23) of the same compound?
A: > 100 µM (inactive)

Q: And the GI50 (CCRF-CEM)?
A: > 100 µM (inactive)

Q: And the GI50 (MCF7)?
A: > 100 µM (inactive)

Q: What about the GI50 (HCT-15) of the same compound?
A: > 100 µM
